Experimental findings from patent EP0353047B1, “Use of imidazopyrazole derivatives as analgesics and anti-inflammatory agents” (Sankyo Company Limited, priority 1988, dated 1990) are described below.

Marks after values point to notes of the source that are not given here. Bounds are passed on as bounds.

One data set has as its system rats of the Wistar strain. Nature of the data set: Analgesic effect (Randall-Selitto method). The class given is in vivo. As to conditions: ED₅₀, oral, Wistar rats. The protocol: These tests were conducted according to the Randall-Selitto method using rats of the Wistar strain [L.O. Randall, J.J. Selitto: Arch. int. Pharmacodyn. 111, 409 (1957)]. Except where otherwise noted, the dose of test compound was 50 mg/kg.
As to “3-methoxy-1-(4-methoxy-6-methylpyrimidin-2-yl)-5-methylpyrazole [Mepirizole, reference compound]”, the “Analgesic Randall-Selitto (ED₅₀)” value stood at 63.9 mg/kg.

The same data set, now with this note: Rattus norvegicus; ED₅₀, oral, Wistar rats.
Take `Cc1c(-c2cccs2)nn2cc[nH]c12` [Example 21, 7-Methyl-6-(2-thienyl)-1H-imidazo[1,2-b]pyrazole]: it took a dose of 10 mg/kg to reach the 50% effect level (ED50).

In turn, `Cc1c(-c2ccccc2)nn2cc[nH]c12` [Example 4, 7-methyl-6-phenyl-1H-imidazo[1,2-b]pyrazole] returned a median effective dose (ED50) of 2.4 mg/kg.

Molecule `c1csc(-c2cc3[nH]ccn3n2)c1` [Example 20, 6-(2-Thienyl)-1H-imidazo[1,2-b]pyrazole] came in with a median effective dose (ED50) of 8 mg/kg.

`CN(C)CCCOc1nn(Cc2ccccc2)c2ccccc12` [Benzydamine, reference compound] returned an ED50 of more than 200 mg/kg.

On to `c1ccc(-c2cc3[nH]ccn3n2)cc1` [Example 3, 6-phenyl-1H-imidazo[1,2-b]pyrazole], for which the 50% effect level (ED50) was put at a dose of 6.1 mg/kg.

In turn, `c1csc(-c2cnn3cc[nH]c23)c1` [Example 32, 7-(2-thienyl)-1H-imidazo[1,2-b]pyrazole] returned an ED50 of 6.9 mg/kg.

`c1ccc(-c2cnn3cc[nH]c23)cc1` [Example 29, 7-Phenyl-1H-imidazo[1.2-b]pyrazole]: the ED50 worked out at 5.1 mg/kg.

The data set is the same for the next values; noted with them: Rattus norvegicus; fraction of animals; dose 50 mg/kg, oral.
On to `Cc1c(-c2cccs2)nn2cc[nH]c12` [Example 21, 7-Methyl-6-(2-thienyl)-1H-imidazo[1,2-b]pyrazole], for which the responders at 50 mg/kg is 100%.

The molecule `Cc1c(-c2ccccc2)nn2cc[nH]c12` [Example 4, 7-methyl-6-phenyl-1H-imidazo[1,2-b]pyrazole] had a responders at 50 mg/kg of 100%.

`c1csc(-c2cc3[nH]ccn3n2)c1` [Example 20, 6-(2-Thienyl)-1H-imidazo[1,2-b]pyrazole] had a responders at 50 mg/kg of 100%.

`c1ccc(-c2cc3[nH]ccn3n2)cc1` [Example 3, 6-phenyl-1H-imidazo[1,2-b]pyrazole] showed a responders at 50 mg/kg of 100%.

The data set is the same for the next values; noted with them: fraction of animals; dose 25 mg/kg (*), oral.
On to `c1csc(-c2cnn3cc[nH]c23)c1` [Example 32, 7-(2-thienyl)-1H-imidazo[1,2-b]pyrazole], for which the “Analgesic effect (Randall-Selitto)” value was 5/5*.

Consider `c1ccc(-c2cnn3cc[nH]c23)cc1` [Example 29, 7-Phenyl-1H-imidazo[1.2-b]pyrazole], for which the “Analgesic effect (Randall-Selitto)” value is on record as 5/5*.

The test system of another data set is carrageenan-induced edema. Kind of data set: Anti-inflammatory effect (carrageenan edema method). As to conditions: Rattus norvegicus; ID₅₀, oral, Wistar rats. The class given is in vivo, rats of the Wistar strain.
Regarding `Cc1c(-c2cccs2)nn2cc[nH]c12` [Example 21, 7-Methyl-6-(2-thienyl)-1H-imidazo[1,2-b]pyrazole], the 50% effect level (ED50) was put at a dose of 22.3 mg/kg.

`Cc1c(-c2ccccc2)nn2cc[nH]c12` [Example 4, 7-methyl-6-phenyl-1H-imidazo[1,2-b]pyrazole]: it took a dose of 34.1 mg/kg to reach the 50% effect level (ED50).

Consider `c1csc(-c2cc3[nH]ccn3n2)c1` [Example 20, 6-(2-Thienyl)-1H-imidazo[1,2-b]pyrazole], for which the 50% effect level (ED50) was put at a dose of 17.1 mg/kg.

On to `CN(C)CCCOc1nn(Cc2ccccc2)c2ccccc12` [Benzydamine, reference compound], for which the 50% effect level (ED50) was put at a dose of 193 mg/kg.

`c1ccc(-c2cc3[nH]ccn3n2)cc1` [Example 3, 6-phenyl-1H-imidazo[1,2-b]pyrazole] showed a 50% effective dose (ED50) of 36.6 mg/kg.

Consider `c1csc(-c2cnn3cc[nH]c23)c1` [Example 32, 7-(2-thienyl)-1H-imidazo[1,2-b]pyrazole], for which the 50% effect level (ED50) was put at a dose of 23.4 mg/kg.

In the case of `c1ccc(-c2cnn3cc[nH]c23)cc1` [Example 29, 7-Phenyl-1H-imidazo[1.2-b]pyrazole], it took a dose of 20.1 mg/kg to reach the 50% effect level (ED50).

Staying with this data set, now noted: oral, Wistar rats.
For the molecule “3-methoxy-1-(4-methoxy-6-methylpyrimidin-2-yl)-5-methylpyrazole [Mepirizole, reference compound]”, the “Anti-inflammatory Carrageenan (ID₅₀)” value is given as 106 mg/kg.

The next data set has as its system gastric acid secretions. Kind of data set: Anti-ulcer activity: suppression of gastric acid secretions (Shay method). Format: in vivo, rats. As to conditions: gastric acid secretion; dosage 10 mg/kg i.d.
For `Cc1c(-c2ccccc2)nn2cc[nH]c12` [Example 4, 7-methyl-6-phenyl-1H-imidazo[1,2-b]pyrazole], the “Suppression rate (%)” value is 67%.

Turning to `c1csc(-c2cc3[nH]ccn3n2)c1` [Example 20, 6-(2-Thienyl)-1H-imidazo[1,2-b]pyrazole], the “Suppression rate (%)” value amounted to 84%.

On to `c1ccc(-c2cc3[nH]ccn3n2)cc1` [Example 3, 6-phenyl-1H-imidazo[1,2-b]pyrazole], for which the “Suppression rate (%)” value amounted to 66%.

Still in this data set, the particulars now being: gastric acid secretion; dosage 30 mg/kg i.d.
Take `Cc1c(-c2ccccc2)nn2cc[nH]c12` [Example 4, 7-methyl-6-phenyl-1H-imidazo[1,2-b]pyrazole]: the “Suppression rate (%)” value came to 100%.

For the molecule `c1csc(-c2cc3[nH]ccn3n2)c1` [Example 20, 6-(2-Thienyl)-1H-imidazo[1,2-b]pyrazole], the “Suppression rate (%)” value was determined as 93%.

Take `c1ccc(-c2cc3[nH]ccn3n2)cc1` [Example 3, 6-phenyl-1H-imidazo[1,2-b]pyrazole]: the “Suppression rate (%)” value stood at 85%.

In the next data set the test system is inflammation induced by anti-rat IgG rabbit serum. Nature of the data set: Anti-inflammatory effect (reversed passive alusas reaction, Evans blue extraction). Format: in vivo, rats of the Sprague-Dawley strain. As to conditions: 2.5 h, percent inhibition of inflammation relative to control group, dose 25 mg/kg (*), oral. The method, then:
The test animals were rats of the Sprague-Dawley strain, which had first been fasted for 17 hours. The hair was trimmed from their dorsal portions by means of a hair clipper, and 0.1 ml/site of anti-rat IgG rabbit serum was injected intracutaneously at the trimmed part to induce inflammation. Except in the case of the control animals, to which no anti-inflammatory drug was administered, the test drug was administered orally immediately before inflammation was induced. Except where otherwise noted, the dose of test compound was 50 mg/kg. Two hours after induction of inflammation, a 1% by volume solution of Evans blue in physiological saline was injected intravenously into the tail of each rat in an amount of 1 ml per each animal. 30 minutes after this injection, the rats were sacrificed with carbon dioxide and their skins were peeled off to extract the chromogen of the blue spots. In more detail, the skins were cut into small pieces and extracted with 5 ml of an extraction solvent at room temperature for 2 days. The supernatant obtained by centrifugation was then measured spectrophotometrically at an absorption wavelength of 605 nm. The percent inhibition of inflammation of the group of rats to which the test drug was administered was determined relative to the control group.
Consider `Cc1c(-c2cccs2)nn2cc[nH]c12` [Example 21, 7-Methyl-6-(2-thienyl)-1H-imidazo[1,2-b]pyrazole], for which the inhibition in vivo at 25 mg/kg was 78.1%.

`c1csc(-c2cnn3cc[nH]c23)c1` [Example 32, 7-(2-thienyl)-1H-imidazo[1,2-b]pyrazole] registered an inhibition in vivo at 25 mg/kg of 82.5%.

The molecule `c1ccc(-c2cnn3cc[nH]c23)cc1` [Example 29, 7-Phenyl-1H-imidazo[1.2-b]pyrazole] displayed an inhibition in vivo at 25 mg/kg of 72.2%.

Staying with this data set, now noted: 2.5 h, percent inhibition of inflammation relative to control group, dose 50 mg/kg, oral.
`Cc1c(-c2ccccc2)nn2cc[nH]c12` [Example 4, 7-methyl-6-phenyl-1H-imidazo[1,2-b]pyrazole] showed an inhibition in vivo at 50 mg/kg of 60.5%.

Molecule `c1csc(-c2cc3[nH]ccn3n2)c1` [Example 20, 6-(2-Thienyl)-1H-imidazo[1,2-b]pyrazole] came in with an inhibition in vivo at 50 mg/kg of 79.6%.

As to `c1ccc(-c2cc3[nH]ccn3n2)cc1` [Example 3, 6-phenyl-1H-imidazo[1,2-b]pyrazole], the inhibition in vivo at 50 mg/kg was determined as 88%.

The data set is the same for the next values; noted with them: ID₅₀, oral, Sprague-Dawley rats.
`Cc1c(-c2cccs2)nn2cc[nH]c12` [Example 21, 7-Methyl-6-(2-thienyl)-1H-imidazo[1,2-b]pyrazole] showed a 50% effective dose (ED50) of 7.9 mg/kg.

As to `Cc1c(-c2ccccc2)nn2cc[nH]c12` [Example 4, 7-methyl-6-phenyl-1H-imidazo[1,2-b]pyrazole], the 50% effect level (ED50) was put at a dose of 26.7 mg/kg.

Consider `c1csc(-c2cc3[nH]ccn3n2)c1` [Example 20, 6-(2-Thienyl)-1H-imidazo[1,2-b]pyrazole], for which it took a dose of 7 mg/kg to reach the 50% effect level (ED50).

Turning to `c1ccc(-c2cc3[nH]ccn3n2)cc1` [Example 3, 6-phenyl-1H-imidazo[1,2-b]pyrazole], the 50% effect level (ED50) was put at a dose of 13.9 mg/kg.

Take `c1csc(-c2cnn3cc[nH]c23)c1` [Example 32, 7-(2-thienyl)-1H-imidazo[1,2-b]pyrazole]: the ED50 stood at 10.9 mg/kg.

Molecule `c1ccc(-c2cnn3cc[nH]c23)cc1` [Example 29, 7-Phenyl-1H-imidazo[1.2-b]pyrazole] showed an ED50 of 14.8 mg/kg.

The subject of another data set is male mice of the ddy strain. Nature of the data set: Acute toxicity. Format: in vivo. The note with it: fraction of animals; dose 300 mg/kg oral in 0.5% carboxymethyl cellulose, observed for 7 days. The method, then:
The test animals employed were male mice of the ddy strain (age: 5 weeks). […] The dose of test compound was 300 mg/kg.
As to `Cc1c(-c2cccs2)nn2cc[nH]c12` [Example 21, 7-Methyl-6-(2-thienyl)-1H-imidazo[1,2-b]pyrazole], the “Toxicity (mouse)” value was 0/3.

Regarding `Cc1c(-c2ccccc2)nn2cc[nH]c12` [Example 4, 7-methyl-6-phenyl-1H-imidazo[1,2-b]pyrazole], the “Toxicity (mouse)” value was 0/5.

As for `c1csc(-c2cc3[nH]ccn3n2)c1` [Example 20, 6-(2-Thienyl)-1H-imidazo[1,2-b]pyrazole], the “Toxicity (mouse)” value was 0/3.

Turning to `c1ccc(-c2cc3[nH]ccn3n2)cc1` [Example 3, 6-phenyl-1H-imidazo[1,2-b]pyrazole], the “Toxicity (mouse)” value is 0/5.

As to `c1csc(-c2cnn3cc[nH]c23)c1` [Example 32, 7-(2-thienyl)-1H-imidazo[1,2-b]pyrazole], the “Toxicity (mouse)” value was 0/3.

Regarding `c1ccc(-c2cnn3cc[nH]c23)cc1` [Example 29, 7-Phenyl-1H-imidazo[1.2-b]pyrazole], the “Toxicity (mouse)” value was 0/3.

The next data set has as its system carrageenan-induced edema. Nature of the data set: Anti-inflammatory effect (carrageenan edema method). Format: in vivo, rats of the Wistar strain. The note with it: Rattus norvegicus; percent inhibition of carrageenan-induced edema; dose 25 mg/kg (*), oral. The protocol: The percent inhibition against carrageenan-induced edema in rats of the Wistar strain, using the conventional method of C.A. Winter, E.A. Risley, G.W. Nuss [J. Pharmacol., Exp. Therap., 141, 369 (1963)]. Except where otherwise noted, the dose of test compound was 50 mg/kg.
Molecule `c1csc(-c2cnn3cc[nH]c23)c1` [Example 32, 7-(2-thienyl)-1H-imidazo[1,2-b]pyrazole] gave an inhibition in vivo at 25 mg/kg of 54.7%.

Turning to `c1ccc(-c2cnn3cc[nH]c23)cc1` [Example 29, 7-Phenyl-1H-imidazo[1.2-b]pyrazole], the inhibition in vivo at 25 mg/kg was 63.2%.

Still in this data set, the particulars now being: Rattus norvegicus; percent inhibition of carrageenan-induced edema; dose 50 mg/kg, oral.
Molecule `Cc1c(-c2cccs2)nn2cc[nH]c12` [Example 21, 7-Methyl-6-(2-thienyl)-1H-imidazo[1,2-b]pyrazole] gave an inhibition in vivo at 50 mg/kg of 53.4%.

In turn, `Cc1c(-c2ccccc2)nn2cc[nH]c12` [Example 4, 7-methyl-6-phenyl-1H-imidazo[1,2-b]pyrazole] showed an inhibition in vivo at 50 mg/kg of 64.9%.

Take `c1csc(-c2cc3[nH]ccn3n2)c1` [Example 20, 6-(2-Thienyl)-1H-imidazo[1,2-b]pyrazole]: testing at 50 mg/kg gave an inhibition in vivo of 89.3%.

In turn, `c1ccc(-c2cc3[nH]ccn3n2)cc1` [Example 3, 6-phenyl-1H-imidazo[1,2-b]pyrazole] returned an inhibition in vivo at 50 mg/kg of 65.1%.
